Data published in PMC6429263, “Evolution and Antibacterial Evaluation of 8-Hydroxy-cycloberberine Derivatives as a Novel Family of Antibacterial Agents Against MRSA” (Molecules, 2019).

What was measured:
[1] = Stability in liver microsomes, human; type: in vitro ADME
Experimental: The assay was performed with liver microsomes from CD-1 mouse, SD rat and human. […] The reaction can be started by the addition of liver microsomes or the tested compound or NADPH. Aliquots were sampled at 0, 5, 10, 20, 30 and 60 min incubation, and enzymatic reaction was stopped by protein precipitation in cold acetonitrile including 100 ng/mL tolbutamide and 100 ng/mL labetalol as internal standard. After centrifugation, samples were then analyzed by LC/MS/MS [26].

[2] = Stability in liver microsomes, mouse; type: in vitro ADME, CD-1 mouse
Experimental: (§1) The assay was performed with liver microsomes from CD-1 mouse, SD rat and human. Microsomes in 100 mM potassium phosphate buffer (0.5 mg/mL microsomal protein), cofactor MgCl2 (10 mM), tested compound (1 μM, cosolvent (0.01% DMSO), 0.99% CH3OH), and then NADPH (1 mM) at 37 °C for 60 min. The reaction can be started by the addition of liver microsomes or the tested compound or NADPH. Aliquots were sampled at 0, 5, 10, 20, 30 and 60 min incubation, and enzymatic reaction was stopped by protein precipitation in cold acetonitrile including 100 ng/mL tolbutamide and 100 ng/mL labetalol as internal standard. After centrifugation, samples were then analyzed by LC/MS/MS [26].

[3] = Stability in liver microsomes, rat; type: in vitro ADME, SD rat
Experimental: as §1

## C[C@]12CC[C@H]3[C@@H](CCC4=CC(=O)CC[C@@]43C)[C@@H]1CC[C@@H]2O [Tes, testosterone, reference compound]
[1]; 1 μM
  half-life at 1 μM: 12.9 min
[1]; 60 min
  Remaining Ratio (T = 60 min): 3.9%
[2]; 60 min
  Remaining Ratio (T = 60 min): 0%
[2]; CD-1, 1 μM
  half-life at 1 μM: 5.5 min
[2]; CD-1, 1 μM, read-out: CL Int (mic)
  microsomal CLint at 1 μM: 254 µL/min/mg
[3]; 60 min
  Remaining Ratio (T = 60 min): 0%
[3]; SD, 1 μM
  half-life at 1 μM: 0.6 min
[3]; SD, 1 μM, read-out: CL Int (mic)
  microsomal CLint at 1 μM: 2350 µL/min/mg
